Results from US6040149A, “Assay for identifying agents which act on the ceramide-activated protein kinase, kinase suppressor of ras, and methods of using said agents” (priority 1997, dated 2000).
Read-outs that look alike come from different tables or passages of the source.

What was measured:
[1] = test system: ceramide-activated protein kinase
[2] = test system: ceramide-activated protein kinase; assay: EGFR peptide phosphorylation by kinase in A-431 microsomal membranes / postnuclear supernatant; format: biochemical, human (A-431 epidermoid carcinoma cells); details: words
Protocol: Kinetics of ^32 Pi incorporation into the EGFR peptide. […] The reaction was initiated by addition of 50 μl of [γ-^32 P]ATP (150 μM final concentration) and terminated by addition of 50 μl of 0.5 M ATP in 90% (vol/vol) formic acid. Samples were spotted on phosphocellulose paper, washed with 1 M acetic acid/4 mM pyrophosphate, and ^32 P incorporation was measured by liquid-scintillation counting, as described. A boiled protein blank was subtracted from each data value. The data (means) represent duplicate samples from one of two similar experiments. […]
Kinetics of ceramide-induced ^32 Pi incorporation into EGFR peptide. Peptide phosphorylation was done as described in FIG. 2 in the absence (.smallcircle.) or presence (.circle-solid.) of 0.5 μM C8 -ceramide. Phosphorylated peptide was resolved by HPLC. Values (means) represent data from three experiments.
Concentration-dependence of ceramide-induced ^32 Pi incorporation into EGFR peptide. Peptide phosphorylation reactions were done as described for FIG. 2, for 2 minutes, using various concentrations of ceramide (0.001-3 μM). Phosphorylated peptide was resolved by HPLC. Values (means) represent data from three experiments. […]
Phosphorylation was initiated at 22° C. by addition of 50 μl of [γ-^32 P] ATP (150 μM final concentration; 4000 dpm/pmol). For studies with lipid activators, ceramide and other lipids were dried under N2 and resuspended in the kinase assay buffer by bath sonication for 2 minutes at 37° C.
Phosphorylated peptide was quantified by two separate methods. For initial studies, samples were spotted on phosphocellulose paper, washed in 1 M acetic acid/4 mM pyrophosphate and subjected to liquid scintillation counting, according to methods well known to those skilled in the art. Values obtained from a boiled blank or a sample lacking peptide were subtracted from each determination. Alternatively, HPLC was done according to methods well known to those skilled in the art. For these studies, samples were first applied to a C18 Sep-Pak cartridge and eluted with 99.9% acetonitrile/0.1% trifluoroacetic acid. The eluates were lyophilized, resuspended in 6 M guanidine hydrochloride/200 mM Tris, pH 8.5 and applied to a C18 reverse-phase column (Dynamax, 4.6 mm i.d., Rainin, Woburn, Mass.). The peptide was eluted with a linear gradient (1% per minute) of acetonitrile at a flow rate of 1 ml/minute and was detected by measuring the Cerenkov radiation associated with 1-ml fractions.

EL-4 cells = assay: Sphingomyelin and ceramide levels in intact EL-4 cells; format: cell-based, murine; details: maximally effective concentrations (n=5)
Protocol: IL-1β effects on sphingomyelin levels in EL4 cells. Time course (A) and dose response (B). Cells were grown to growth arrest (1-1.5×10^6 cells ml^-1) in DME/Ham's F12 medium (1:1, v/v) containing 10% horse serum and for 48 hours [^3 H]choline (1 μCi ml^-1). On the day of an experiment, cells were resuspended back into the same medium at 10×10^6 cells ml^-1 and stimulated with 40 ng ml^-1 IL-1β for the indicated times (A) or for 30 minutes with increasing concentrations of IL-1β (B). Human IL-1β may be obtained using methods well known to those skilled in the art. Reactions were terminated with CHCl3 :CH3 OH:HCl (100:100:1) containing 10 mM EDTA (82). Lipids in the organic phase extract were dried under N2 and subjected to mild alkaline hydrolysis (0.1 M methanolic KOH for 1 hour at 37° C.) to remove glycerophospholipids. Sphingomyelin was resolved by thin-layer chromatography (TLC) using CHCl3 :CH3 OH:CH3 COOH:H2 O (60:30:8:5) as solvent, identified by iodine vapor staining, and quantified by liquid scintillation spectrometry. As previously reported, the use of [^3 H]choline as a measure of sphingomyelin content was validated by simultaneous phospholipid phosphorus measurements. Each value represents the mean±SEM of triplicate determinations from four experiments in (A), and one representative of four similar studies performed in triplicate in (B).
Effect of IL-1β on ceramide levels in EL-4 cells. Cells were stimulated as in FIG. 12 with IL-1β (40 ng ml^-1) and ceramide contained within the organic phase extract quantified enzymatically using the E. coli diacylglycerol kinase reaction. Lipids were resolved by TLC using CHCl3 :CH3 OH:CH3 COOH (65/15/5) as solvent, autoradiographed and quantified by liquid scintillation spectrometry. Each value represents the mean±SEM of triplicate determinations from 10 experiments.
The murine thymoma EL-4 cell line is a well-defined IL-1 responsive cell line that expresses functional IL-1 receptors. Upon stimulation with IL-1, these cells up-regulate the IL-2 receptor and secrete IL-2 [62]. Initial studies were designed to investigate the effects of IL-1β on cellular sphingomyelin content. Cells, grown in Dulbecco's Modified Eagle's (DME)/Ham's F-12 medium containing 10% horse serum and [^3 H]choline (1 μCi ml^-1), were resuspended back into the same medium at 10×10^6 cells ml^-1 and stimulated with IL-1β. IL-1β is commercially available.

KSR = target: T1, KSR (Mus musculus, UniProt Q61097); assay: KSR activity toward Raf-1 peptides in vitro; format: biochemical, mouse (KSR immunoprecipitated from COS-7 cells); parameters: Raf-1 peptides as substrate; details: for KSR activity towards substrate peptide: 30 nM ceramide, 5 min
T1 sequence (Q61097 1-873): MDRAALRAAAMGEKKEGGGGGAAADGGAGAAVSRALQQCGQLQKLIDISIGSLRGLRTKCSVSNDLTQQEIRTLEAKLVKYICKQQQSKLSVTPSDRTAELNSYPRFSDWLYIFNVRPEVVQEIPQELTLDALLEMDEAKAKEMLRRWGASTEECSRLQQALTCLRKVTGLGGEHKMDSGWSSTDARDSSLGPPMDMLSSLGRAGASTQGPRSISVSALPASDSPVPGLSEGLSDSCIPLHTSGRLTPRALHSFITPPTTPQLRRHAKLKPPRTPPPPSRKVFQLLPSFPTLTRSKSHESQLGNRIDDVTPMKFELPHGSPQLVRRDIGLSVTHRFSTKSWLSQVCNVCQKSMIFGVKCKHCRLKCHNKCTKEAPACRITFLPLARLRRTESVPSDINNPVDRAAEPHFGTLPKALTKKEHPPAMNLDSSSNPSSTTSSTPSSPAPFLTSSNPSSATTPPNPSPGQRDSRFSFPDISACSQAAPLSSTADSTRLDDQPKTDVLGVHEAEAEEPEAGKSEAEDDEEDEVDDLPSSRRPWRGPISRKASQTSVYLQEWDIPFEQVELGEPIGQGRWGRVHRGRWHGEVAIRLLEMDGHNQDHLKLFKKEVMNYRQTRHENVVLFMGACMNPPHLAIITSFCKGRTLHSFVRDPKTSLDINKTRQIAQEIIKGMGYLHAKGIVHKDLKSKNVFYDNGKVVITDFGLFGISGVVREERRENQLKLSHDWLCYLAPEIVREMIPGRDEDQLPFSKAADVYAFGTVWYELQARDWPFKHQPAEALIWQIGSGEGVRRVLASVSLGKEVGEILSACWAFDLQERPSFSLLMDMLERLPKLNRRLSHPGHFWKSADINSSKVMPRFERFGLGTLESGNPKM
Protocol: The wild type peptide contains eight potential phosphorylation sites (shown in bold). Substitution of alanines and glycines for serines and threonines generated one peptide (TTLP-peptide) containing only two potential phosphorylation sites (Thr^268,269) and another peptide (AALP-peptide) with no potential phosphorylation sites.
FIG. 28A--Flag-tagged KSR was immunoprecipitated from 0.2 mg COS-7 lysate, and assayed with TTLP- or AALP-peptides in the presence of 30 nM ceramide (Avanti) or diluent (DMSO). Background counts per minute (cpm) derived from samples incubated with the AALP-peptide which contains no phosphorylation sites were subtracted from all points. Background cpm always represented less than 25% of the untreated total.
FIG. 28B--Flag-tagged KSR immunoprecipitated from 0.2 mg COS-7 lysate was assayed with TTLP- or AALP-peptides in the presence of ceramide or diluent for 45 min as described in FIG. 7A.
FIG. 28C--Flag-tagged KSR was immunoprecipitated from 0.15 mg COS-7 lysate and assayed with TTLP- or AALP-peptides for 20 min in the presence of 30 nM of the indicated lipid second messengers as described in FIG. 28A (AA: arachidonic acid; LPA: lyso phosphatidic acid; PMA: phorbol 12-myristate 13-acetate; DAG: 1,2-diacylglycerol).
KSR-bound beads were incubated with reaction buffer B plus 10 mM MnCl2, 5 μM ATP and [γ-^32 P]ATP at 22° C. for the period of time indicated in the presence of 0.3 mM synthetic Raf-peptide or substrate peptides specific for other Ser/Thr protein kinases. […] (SEQ ID NO.3). Substitution of glycines and alanines for serines and threonines generated one peptide (termed TTLP-peptide) containing only two potential phosphorylation sites at Thr^268,269 (in bold), […] (SEQ ID NO. 24), and another peptide (termed AALP-peptide; SEQ ID No.6) with no potential phosphorylation sites, […] (SEQ ID No.25). The amino acid sequences of substrate peptides specific for other protein kinases (Joseph et al., 1993) are: […] (SEQ ID NO.26) (PKA); […] (SEQ ID NO.27) (S6 kinase); […] (SEQ ID NO.28)(CK II); […] (SEQ ID NO.29) (CaM kinase II); and […] (SEQ ID NO.30) (PKC). […] Substrate peptides for PKA and PKC were from Sigma (St. Louis, Mo.). The reaction was stopped by addition of a stop solution containing 0.5 M ATP in 90% formic acid. The beads were removed by centrifugation at 5000×g for 2 min and the supernatant was loaded on P81 Whatman filter paper. The filter was air dried and washed in 4 mM Na2 H2 P2 O7, 1 mM acetic acid for one hour. The filter was baked at 90° C. for 10 min and quantified by Cerenkov counting using a Beckman LS 5000TD scintillation counter. In some experiments, samples were separated by C18 reverse-phase chromatography on HPLC (Mathias et al., 1991) to verify the results of the filter assay. Virtually identical results were obtained with both methods.

CCCCCCCCCCCCC/C=C/[C@@H](O)[C@H](CO)NC(=O)CCCCCCC [C8-ceramide, N-octanoylsphingosine]
maximal kinase activity, fold of control ([1]; 10 μM C8-cer added to medium): 1.5 fold of control
effect on EGFR peptide phosphorylation [2]: similarly effective

CNC[C@H](O)c1ccc(O)c(O)c1 [epinephrine]
ceramide response (EL-4 cells): failed to elicit a ceramide response

CCCCCCCCCCCCCCCC(=O)O [palmitic acid]
effect on EGFR peptide phosphorylation [2]: failed to increase EGFR peptide phosphorylation

CC1=C(/C=C/C(C)=C/C=C/C(C)=C/C(=O)O)C(C)(C)CCC1 [retinoic acid]
effect on kinase activity in membranes of stimulated HL-60 cells ([1]; cholera toxin 10 nM, retinoic acid 0.5 μM, butyrate 0.5 mM): not stimulated

GRGLSLSR [PKA substrate peptide]
KSR activity towards substrate peptide (KSR): minimal activity

LSSLRASTSKSGGQK [S6 kinase substrate peptide]
KSR activity towards substrate peptide (KSR): minimal activity

PLARTLSVAGLPGK [CaM kinase II substrate peptide]
KSR activity towards substrate peptide (KSR): minimal activity

RQRGAGAPNVHMVGAALPVDGRMIE [AALP-peptide]
phosphorylation of peptide by KSR (KSR): negligible

RQRGAGAPNVHMVGTTLPVDGRMIE [TTLP-peptide]
phosphorylation of peptide by KSR (KSR): same extent

RRREEETEEE [CK II substrate peptide]
KSR activity towards substrate peptide (KSR): minimal activity

VRKRTLRRL [PKC substrate peptide]
KSR activity towards substrate peptide (KSR): minimal activity

cholera toxin
effect on kinase activity in membranes of stimulated HL-60 cells [1]: not stimulated

concanavalin A
ceramide response (EL-4 cells): failed to elicit a ceramide response

dihydroceramide
activation of KSR (KSR): fail to activate KSR
